# In patent US6638973B2, “Taxane formulations” (FSU Research Foundation, Inc., priority 2000, dated 2003):
# pIC50: −log10 of the molar value.
# Tested on: HCT116 cells
# Assay: In vitro cytotoxicity measured by the cell colony formation assay
# Assay type: cell-based
# Details: HCT116 cells, 72 h drug incubation, colonies counted after 7 days; ID50 = drug concentration producing 50% inhibition of colony formation; read-out: IN VITRO ID 50 (nm) HCT116
# Protocol: (§1) Four hundred cells (HCT116) were plated in 60 mm Petri dishes containing 2.7 mL of medium (modified McCoy's 5a medium containing 10% fetal bovine serum and 100 units/mL penicillin and 100 µg/mL streptomycin). The cells were incubated in a CO2 incubator at 37° C. for 5 h for attachment to the bottom of Petri dishes. The compounds identified in Example 2 were made up fresh in medium at ten times the final concentration, and then 0.3 mL of this stock solution was added to the 2.7 mL of medium in the dish. The cells were then incubated with drugs for 72 h at 37° C. At the end of incubation the drug-containing media were decanted, the dishes were rinsed with 4 mL of Hank's Balance Salt Solution (HBSS), 5 mL of fresh medium was added, and the dishes were returned to the incubator for colony formation. The cell colonies were counted using a colony counter after incubation for 7 days.
# as §1, with “Example 7” for “Example 2”
# as §1, with “Example 22” for “Example 2”
# as §1, with “Example 27” for “Example 2”
# Four hundred cells (HCT116) were plated in 60 mm Petri dishes containing 2.7 mL of medium (modified McCoy's 5a medium containing 10% fetal bovine serum and 100 units/mL penicillin and 100 µg/mL streptomycin). The cells were incubated in a CO2 incubator at 37° C. for 5 h for attachment to the bottom of Petri dishes. […]
row,Compound,pIC50
1,"CC(=O)O[C@@]12CO[C@@H]1C[C@H](OC(=O)Nc1ccccc1)[C@@]1(C)C(=O)[C@H](O)C3=C(C)[C@@H](OC(=O)[C@H](O)[C@@H](NC(=O)C=C(C)C)c4ccco4)C[C@@](O)([C@@H](OC(=O)c4ccccc4)C12)C3(C)C (stereo partly drawn) [Compound 5535, N-Debenzoyl-N-isobutenyl-3′-desphenyl-3′-(2-furyl)-7-phenylcarbamoyl taxol]",> 9.00

# Same assay, conditions: HCT116 cells, 72 h incubation with drug, colonies counted after 7 days; ID50 = drug concentration producing 50% inhibition of colony formation; read-out: IN VITRO ID 50 (nm) HCT116
row,Compound,pIC50
1,CCCC(=O)N[C@@H](c1cccs1)[C@@H](O)C(=O)O[C@H]1C[C@@]2(O)[C@@H](OC(=O)c3ccccc3)C3[C@](C)(C(=O)[C@H](OC(=O)OCC)C(=C1C)C2(C)C)[C@@H](O)C[C@H]1OC[C@@]31OC(C)=O (stereo partly drawn) [Compound 3155],> 9.00
2,COC(=O)O[C@H]1C[C@H]2OC[C@@]2(OC(C)=O)C2[C@H](OC(=O)c3ccccc3)[C@]3(O)C[C@H](OC(=O)[C@H](O)[C@@H](NC(=O)c4ccco4)c4cccs4)C(C)=C([C@@H](O)C(=O)[C@@]21C)C3(C)C (stereo partly drawn) [Compound 4222],> 9.00
3,COC(=O)O[C@H]1C[C@H]2OC[C@@]2(OC(C)=O)C2[C@H](OC(=O)c3ccccc3)[C@]3(O)C[C@H](OC(=O)[C@H](O)[C@@H](NC(=O)OC(C)(C)C)c4ccco4)C(C)=C([C@@H](O)C(=O)[C@@]21C)C3(C)C (stereo partly drawn) [Compound 4575],> 9.00
4,COC(=O)O[C@H]1C(=O)[C@@]2(C)C([C@H](OC(=O)c3ccccc3)[C@]3(O)C[C@H](OC(=O)[C@H](O)[C@@H](NC(=O)OC(C)(C)C)c4ccccc4)C(C)=C1C3(C)C)[C@]1(OC(C)=O)CO[C@@H]1C[C@@H]2O (stereo partly drawn) [Compound 2092],> 9.00
5,CC(=O)O[C@@]12CO[C@@H]1C[C@H](OC(=O)OCc1ccccc1)[C@@]1(C)C(=O)[C@H](O)C3=C(C)[C@@H](OC(=O)[C@H](O)[C@@H](NC(=O)C=C(C)C)c4ccco4)C[C@@](O)([C@@H](OC(=O)c4ccccc4)C12)C3(C)C (stereo partly drawn) [Compound 5466],> 9.00
6,CCOC(=O)O[C@H]1C(=O)[C@@]2(C)C([C@H](OC(=O)c3ccccc3)[C@]3(O)C[C@H](OC(=O)[C@H](O)[C@@H](NC(=O)c4ccco4)c4cccs4)C(C)=C1C3(C)C)[C@]1(OC(C)=O)CO[C@@H]1C[C@@H]2O (stereo partly drawn) [Compound 3011],> 9.00

# Same assay, conditions: HCT116 cells, colony formation, 72 h incubation with drug, colonies counted after 7 days; ID50 = drug concentration producing 50% inhibition of colony formation; read-out: IN VITRO ID 50 (nm) HCT116
row,Compound,pIC50
1,CCNC(=O)O[C@H]1C(=O)[C@@]2(C)C([C@H](OC(=O)c3ccccc3)[C@]3(O)C[C@H](OC(=O)[C@H](O)[C@@H](NC(=O)OC(C)(C)C)c4ccc([N+](=O)[O-])cc4)C(C)=C1C3(C)C)[C@]1(OC(C)=O)CO[C@@H]1C[C@@H]2O (stereo partly drawn) [Compound 2743],> 9.00
2,CCNC(=O)O[C@H]1C(=O)[C@@]2(C)C([C@H](OC(=O)c3ccccc3)[C@]3(O)C[C@H](OC(=O)[C@H](O)[C@@H](NC(=O)OC(C)(C)C)c4ccccn4)C(C)=C1C3(C)C)[C@]1(OC(C)=O)CO[C@@H]1C[C@@H]2O (stereo partly drawn) [Compound 2600],> 9.00
3,C/C=C/C(=O)N[C@@H](c1ccco1)[C@@H](O)C(=O)O[C@H]1C[C@@]2(O)[C@@H](OC(=O)c3ccccc3)C3[C@](C)(C(=O)[C@H](OC(=O)NCC)C(=C1C)C2(C)C)[C@@H](O)C[C@H]1OC[C@@]31OC(C)=O (stereo partly drawn) [Compound 6072],> 9.00

# Same assay, conditions: HCT116 colony formation; 72 h drug incubation, colonies counted after 7 days; Example 5, C-7 ester/C-10 hydroxy taxanes; read-out: IN VITRO ID 50 (nm) HCT116
row,Compound,pIC50
1,CCCC(=O)O[C@H]1C[C@H]2OC[C@@]2(OC(C)=O)C2[C@H](OC(=O)c3ccccc3)[C@]3(O)C[C@H](OC(=O)[C@H](O)[C@@H](NC(=O)c4ccco4)c4cccs4)C(C)=C([C@@H](O)C(=O)[C@@]21C)C3(C)C (stereo partly drawn) [Compound 4219],7.54
2,CCC(C)(C)OC(=O)N[C@@H](c1ccco1)[C@@H](O)C(=O)O[C@H]1C[C@@]2(O)[C@@H](OC(=O)c3ccccc3)C3[C@](C)(C(=O)[C@H](O)C(=C1C)C2(C)C)[C@@H](OC(=O)C(C)C)C[C@H]1OC[C@@]31OC(C)=O (stereo partly drawn) [Compound 6252],> 9.00
3,CCC(=O)O[C@H]1C[C@H]2OC[C@@]2(OC(C)=O)C2[C@H](OC(=O)c3ccccc3)[C@]3(O)C[C@H](OC(=O)[C@H](O)[C@@H](NC(=O)c4ccccc4)c4ccsc4)C(C)=C([C@@H](O)C(=O)[C@@]21C)C3(C)C (stereo partly drawn) [Compound 3388],> 8.00
4,CCC(=O)O[C@H]1C[C@H]2OC[C@@]2(OC(C)=O)C2[C@H](OC(=O)c3ccccc3)[C@]3(O)C[C@H](OC(=O)[C@H](O)[C@@H](NC(=O)OC(C)(C)C)c4cccnc4)C(C)=C([C@@H](O)C(=O)[C@@]21C)C3(C)C (stereo partly drawn) [Compound 1372],7.58

# Same assay, conditions: HCT116 colony formation; 72 h drug incubation, colonies counted after 7 days; Example 10, C-10 ester/C-7 hydroxy taxanes; read-out: IN VITRO ID 50 (nm) HCT116
row,Compound,pIC50
1,CC(=O)O[C@@]12CO[C@@H]1C[C@H](O)[C@@]1(C)C(=O)[C@H](OC(=O)C3CC3)C3=C(C)[C@@H](OC(=O)[C@H](O)[C@@H](NC(=O)c4ccco4)c4cccs4)C[C@@](O)([C@@H](OC(=O)c4ccccc4)C12)C3(C)C (stereo partly drawn) [Compound 3297],> 9.00
2,CCCC(=O)O[C@H]1C(=O)[C@@]2(C)C([C@H](OC(=O)c3ccccc3)[C@]3(O)C[C@H](OC(=O)[C@H](O)[C@@H](NC(=O)OCC(C)C)c4ccsc4)C(C)=C1C3(C)C)[C@]1(OC(C)=O)CO[C@@H]1C[C@@H]2O (stereo partly drawn) [Compound 4834],> 8.00
3,CCC(=O)O[C@H]1C(=O)[C@@]2(C)C([C@H](OC(=O)c3ccccc3)[C@]3(O)C[C@H](OC(=O)[C@H](O)[C@@H](NC(=O)c4cccnc4)c4cccs4)C(C)=C1C3(C)C)[C@]1(OC(C)=O)CO[C@@H]1C[C@@H]2O (stereo partly drawn) [Compound 4121],> 8.00
4,CCCC(=O)O[C@H]1C(=O)[C@@]2(C)C([C@H](OC(=O)c3ccccc3)[C@]3(O)C[C@H](OC(=O)[C@H](O)[C@@H](NC(=O)OCC(C)C)c4cccs4)C(C)=C1C3(C)C)[C@]1(OC(C)=O)CO[C@@H]1C[C@@H]2O (stereo partly drawn) [Compound 3265],> 8.00
5,CC(=O)OC12COC1CC(O)C1(C)C(=O)C(OC(=O)c3ccco3)C3=C(C)C(OC(=O)C(O)C(NC(=O)OC(C)(C)C)c4cccnc4)CC(O)(C(OC(=O)c4ccccc4)C21)C3(C)C (stereo not drawn) [Compound 2124],> 8.00
6,CCCC(=O)O[C@H]1C(=O)[C@@]2(C)C([C@H](OC(=O)c3ccccc3)[C@]3(O)C[C@H](OC(=O)[C@H](O)[C@H](C=C(C)C)NC(=O)OCC(C)C)C(C)=C1C3(C)C)[C@]1(OC(C)=O)CO[C@@H]1C[C@@H]2O (stereo partly drawn) [Compound 5144],> 8.00
7,CC(=O)OC12COC1CC(O)C1(C)C(=O)C(OC(=O)c3cccs3)C3=C(C)C(OC(=O)C(O)C(NC(=O)OC(C)(C)C)c4cccs4)CC(O)(C(OC(=O)c4ccccc4)C21)C3(C)C (stereo not drawn) [Compound 1900],> 9.00
8,CC(=O)OC12COC1CC(O)C1(C)C(=O)C(OC(=O)c3cccs3)C3=C(C)C(OC(=O)C(O)C(NC(=O)OC(C)(C)C)c4ccncc4)CC(O)(C(OC(=O)c4ccccc4)C21)C3(C)C (stereo not drawn) [Compound 1954],> 9.00

# Same assay, conditions: HCT116 colony formation; 72 h drug incubation, colonies counted after 7 days; Example 15, C-7 substituted acetate/C-10 hydroxy taxanes; read-out: IN VITRO ID 50 (nm) HCT116
row,Compound,pIC50
1,COCC(=O)O[C@H]1C[C@H]2OC[C@@]2(OC(C)=O)C2[C@H](OC(=O)c3ccccc3)[C@]3(O)C[C@H](OC(=O)[C@H](O)[C@@H](NC(=O)OC(C)(C)C)c4ccco4)C(C)=C([C@@H](O)C(=O)[C@@]21C)C3(C)C (stereo partly drawn) [Compound 6326],> 9.00
2,CC(=O)OCC(=O)O[C@H]1C[C@H]2OC[C@@]2(OC(C)=O)C2[C@H](OC(=O)c3ccccc3)[C@]3(O)C[C@H](OC(=O)[C@H](O)[C@@H](NC(=O)C=C(C)C)c4ccco4)C(C)=C([C@@H](O)C(=O)[C@@]21C)C3(C)C (stereo partly drawn) [Compound 5544],> 9.00
